In PubChem BioAssay (NCI):
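Dose response: 5 concentrations. Exposure: 48 h. Format: 96-well plates. Endpoint: linear interpolation; highest concentration if not reached. GI50 is the concentration that inhibits growth by half. TGI: concentration producing complete growth inhibition.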

Experiments:
Assay in all cases: DTP human tumour cell line panel, 48 h
[1] = system: SR leukemia
[2] = system: PC-3 prostate
[3] = system: CAKI-1 renal
[4] = system: SK-MEL-5 melanoma
[5] = system: OVCAR-4 ovarian
[6] = system: MOLT-4 leukemia
[7] = system: OVCAR-5 ovarian
[8] = system: BT-549 breast
[9] = system: MDA-MB-231 breast
[10] = system: HL-60(TB) leukemia
[11] = system: COLO 205 colon
[12] = system: UACC-257 melanoma
[13] = system: SNB-75 CNS
[14] = system: LOX IMVI melanoma
[15] = system: SNB-19 CNS
[16] = system: ACHN renal
[17] = system: SF-539 CNS
[18] = system: NCI-H23 lung
[19] = system: HCC-2998 colon
[20] = system: NCI-H460 lung
[21] = system: MDA-MB-435
[22] = system: A549 NSCLC
[23] = system: NCI-H522 lung
[24] = system: EKVX NSCLC
[25] = system: 786-0 renal
[26] = system: MALME-3M melanoma
[27] = system: SK-MEL-28 melanoma
[28] = system: DU-145 prostate
[29] = system: HOP-92 NSCLC
[30] = system: HCT-116 colon
[31] = system: NCI/ADR-RES ovarian
[32] = system: MCF7 breast
[33] = system: SK-OV-3 ovarian
[34] = system: OVCAR-8 ovarian
[35] = system: CCRF-CEM leukemia
[36] = system: IGROV1 ovarian
[37] = system: T-47D breast
[38] = system: HOP-62 NSCLC
[39] = system: A498 renal
[40] = system: RPMI-8226 leukemia
[41] = system: RXF 393 renal
[42] = system: HT29 colon
[43] = system: SF-268 CNS
[44] = system: SN12C renal
[45] = system: OVCAR-3 ovarian
[46] = system: HCT-15 colon
[47] = system: SF-295 CNS
[48] = system: SK-MEL-2 melanoma
[49] = system: NCI-H226 lung
[50] = system: M14 melanoma
[51] = system: HS 578T breast
[52] = system: K-562 leukemia
[53] = system: SW-620 colon
[54] = system: TK-10 renal
[55] = system: UO-31 renal
[56] = system: UACC-62 melanoma
[57] = system: U251 CNS
[58] = system: KM12 colon
[59] = system: MDA-MB-468 breast

Nc1nc(-c2ccccc2)c(N=Nc2ccc(Cl)cc2Cl)s1
GI50 [1]: 3.1 µM | TGI [1]: 12.8 µM | GI50 [2]: 3.16 µM | TGI [2]: 12.4 µM | GI50 [3]: 2.52 µM | TGI [3]: 12.3 µM | GI50 [4]: 2.6 µM | TGI [4]: 8.66 µM | GI50 [5]: 3.82 µM | TGI [5]: 17 µM | GI50 [6]: 2.73 µM | TGI [6]: 10.3 µM | GI50 [7]: 3.58 µM | TGI [7]: 15.4 µM | GI50 [8]: 2.43 µM | TGI [8]: 9.74 µM | GI50 [9]: 2.19 µM | TGI [9]: 8.67 µM | GI50 [10]: 3.42 µM | TGI [10]: 12.9 µM | GI50 [11]: 3.91 µM | TGI [11]: 14.1 µM | GI50 [12]: 4.13 µM | TGI [12]: 16.3 µM | GI50 [13]: 1.57 µM | TGI [13]: 8.52 µM | GI50 [14]: 1.83 µM | TGI [14]: 5.17 µM | GI50 [15]: 6.02 µM | TGI [15]: 18.7 µM | GI50 [16]: 2.81 µM | TGI [16]: 12.9 µM | GI50 [17]: 2.78 µM | TGI [17]: 10.5 µM | GI50 [18]: 2.91 µM | TGI [18]: 13.5 µM | GI50 [19]: 1.84 µM | TGI [19]: 5.41 µM | GI50 [20]: 2.92 µM | TGI [20]: 11.7 µM | GI50 [21]: 3.74 µM | TGI [21]: 14.4 µM | GI50 [22]: 3.67 µM | TGI [22]: 14.7 µM | GI50 [23]: 2.91 µM | TGI [23]: 13.3 µM | GI50 [24]: 2.04 µM | TGI [24]: 12.3 µM | GI50 [25]: 2.48 µM | TGI [25]: 6.34 µM | GI50 [26]: 5.38 µM | TGI [26]: 18.1 µM | GI50 [27]: 4.69 µM | TGI [27]: 16.5 µM | GI50 [28]: 5.52 µM | TGI [28]: 17.8 µM | GI50 [29]: 1.85 µM | TGI [29]: 5.86 µM | GI50 [30]: 3.33 µM | TGI [30]: 12.6 µM | GI50 [31]: 3.03 µM | TGI [31]: 10.9 µM | GI50 [32]: 2.16 µM | TGI [32]: 10.9 µM | GI50 [33]: 3.86 µM | TGI [33]: 16.3 µM | GI50 [34]: 5.82 µM | TGI [34]: 18.7 µM | GI50 [35]: 3.13 µM | TGI [35]: 11 µM | GI50 [36]: 2.13 µM | TGI [36]: 12.7 µM | GI50 [37]: 1.03 µM | TGI [37]: 6.56 µM | GI50 [38]: 4.01 µM | TGI [38]: 18.4 µM | GI50 [39]: 6.03 µM | TGI [39]: 18.4 µM | GI50 [40]: 3.31 µM | TGI [40]: 15.2 µM | GI50 [41]: 3.02 µM | TGI [41]: 11.7 µM | GI50 [42]: 3.31 µM | TGI [42]: 10.9 µM | GI50 [43]: 4.91 µM | TGI [43]: 17.8 µM | GI50 [44]: 3.81 µM | TGI [44]: 15.3 µM | GI50 [45]: 3.57 µM | TGI [45]: 13.2 µM | GI50 [46]: 2.81 µM | TGI [46]: 11.7 µM | GI50 [47]: 3.23 µM | TGI [47]: 13.2 µM | GI50 [48]: 3.03 µM | TGI [48]: 12.8 µM | GI50 [49]: 2.11 µM | TGI [49]: 10.4 µM | GI50 [50]: 2.88 µM | TGI [50]: 9.54 µM | GI50 [51]: 3.14 µM | TGI [51]: 17.8 µM | GI50 [52]: 3.58 µM | TGI [52]: 14.9 µM | GI50 [53]: 2.88 µM | TGI [53]: 13.5 µM | GI50 [54]: 5.25 µM | TGI [54]: 14.9 µM | GI50 [55]: 1.45 µM | TGI [55]: 11.7 µM | GI50 [56]: 2.45 µM | TGI [56]: 12 µM | GI50 [57]: 4.28 µM | TGI [57]: 15.8 µM | GI50 [58]: 2.99 µM | TGI [58]: 12.8 µM | GI50 [59]: 0.83 µM | TGI [59]: 3.88 µM
